# Experiments:
# [1] = target: T1, recombinant BACE1 protein (Homo sapiens, UniProt P56817); experiment: BACE1 biochemical FRET based assay - Method 1; settings: BACE1, 120 minutes at room temperature, pH 5.0; read-out: Biochemical FRET based assay - Method 1 pIC50 (converted)
# T1 construct: recombinant BACE1 protein in a final concentration of 1 μg/ml
# Excerpt: (§1) This assay is a Fluorescence Resonance Energy Transfer Assay (FRET) based assay. The substrate for this assay is an APP derived 13 amino acids peptide that contains the ‘Swedish’ Lys-Met/Asn-Leu mutation of the amyloid precursor protein (APP) beta-secretase cleavage site. This substrate also contains two fluorophores: (7-methoxycoumarin-4-yl) acetic acid (Mca) is a fluorescent donor with excitation wavelength at 320 nm and emission at 405 nm and 2,4-Dinitrophenyl (Dnp) is a proprietary quencher acceptor. […] Upon cleavage by BACE1, the fluorophore Mca is separated from the quenching group Dnp, restoring the full fluorescence yield of the donor. The increase in fluorescence is linearly related to the rate of proteolysis.
# Briefly in a 384-well format recombinant BACE1 protein in a final concentration of 1 μg/ml is incubated for 120 minutes at room temperature with 10 μm substrate in incubation buffer (40 mM Citrate buffer pH 5.0, 0.04% PEG, 4% DMSO) in the absence or presence of compound. Next the amount of proteolysis is directly measured by fluorescence measurement at T=0 and T=120 (excitation at 320 nm and emission at 405 nm). Results are expressed in RFU (Relative Fluorescence Units), as difference between T120 and T0.
# (§2) A best-fit curve is fitted by a minimum sum of squares method to the plot of % Controlmin versus compound concentration. From this an IC50 value (inhibitory concentration causing 50% inhibition of activity) can be obtained.
# [2] = target: T2, recombinant BACE2 protein (Homo sapiens, UniProt Q9Y5Z0); experiment: BACE2 biochemical FRET based assay; settings: BACE2, 450 minutes at room temperature, pH 5.0; read-out: Biochemical FRET based assay pIC50 (converted)
# T2 construct: recombinant BACE2 protein in a final concentration of 0.4 μg/ml
# T2 sequence (Q9Y5Z0 63-518): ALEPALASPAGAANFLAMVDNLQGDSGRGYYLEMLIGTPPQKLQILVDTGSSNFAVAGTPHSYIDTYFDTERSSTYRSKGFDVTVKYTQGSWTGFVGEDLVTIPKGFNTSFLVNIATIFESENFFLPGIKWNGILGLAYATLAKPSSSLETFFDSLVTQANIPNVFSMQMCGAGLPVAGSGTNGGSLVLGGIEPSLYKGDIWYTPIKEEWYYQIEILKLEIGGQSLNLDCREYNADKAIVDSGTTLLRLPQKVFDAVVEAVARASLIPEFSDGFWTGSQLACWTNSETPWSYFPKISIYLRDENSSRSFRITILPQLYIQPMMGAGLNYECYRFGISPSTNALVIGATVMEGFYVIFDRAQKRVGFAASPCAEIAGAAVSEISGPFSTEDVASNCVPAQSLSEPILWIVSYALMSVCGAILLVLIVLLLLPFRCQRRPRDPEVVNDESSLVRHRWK
# Excerpt: as §1, with “assay” for “assay is an APP derived 13 amino acids peptide that”, “the beta-secretase,” for “BACE1,”
# Briefly in a 384-well format recombinant BACE2 protein in a final concentration of 0.4 μg/ml is incubated for 450 minutes at room temperature with 10 μM substrate in incubation buffer (50 mM Citrate buffer pH 5.0, 0.05% PEG, no DMSO) in the absence or presence of compound. Next the amount of proteolysis is directly measured by fluorescence measurement at T=0 and T=450 (excitation at 320 nm and emission at 405 nm). Results are expressed in RFU (Relative Fluorescence Units), as difference between T450 and T0.
# as §2
# [3] = test system: Abeta 1-42 produced and secreted into the medium of human neuroblastoma SKNBE2 cells; experiment: Cellular αLisa assay in SKNBE2 cells, Abeta 42; format: cell-based; settings: Homo sapiens, SKNBE2, 18 h, SKNBE2 cells expressing hAPP695, incubated for 18 hours; read-out: Cellular αLisa assay in SKNBE2 cells Abeta 42 pIC50 (converted)
# Protocol: In two αLisa assays the levels of Abeta 1-42 produced and secreted into the medium of human neuroblastoma SKNBE2 cells are quantified. The assay is based on the human neuroblastoma SKNBE2 expressing the wild type Amyloid Precursor Protein (hAPP695). The compounds are diluted and added to these cells, incubated for 18 hours and then measurements of Abeta 1-42 are taken. Abeta 1-42 are measured by sandwich αLisa. αLisa is a sandwich assay using biotinylated antibody AbN/25 attached to streptavidin coated beads and antibody cAb42/26 conjugated acceptor beads for the detection of Abeta 1-42 respectively. In the presence of Abeta 1-42, the beads come into close proximity. The excitation of the donor beads provokes the release of singlet oxygen molecules that trigger a cascade of energy transfer in the acceptor beads, resulting in light emission. Light emission is measured after 1 hour incubation (excitation at […] and emission at 615 nm).
# as §2
# [4] = test system: Abeta 1-37, Abeta 1-38, Abeta 1-40 and Abeta 1-42 in CSF; experiment: Pharmacology in the Beagle dog: beta-amyloid profile in cerebrospinal fluid (CSF) after a single dose; format: in vivo; settings: Canis lupus familiaris, single dose 0.31 mg/kg, 8 h post dosing, read-out: % Decrease in Abeta 1-42 at 8 h post dosing compared to own baseline
# Protocol: Test compounds were tested to evaluate the effect on the beta-amyloid profile in cerebrospinal fluid (CSF) of dogs after a single dose, in combination with pharmacokinetic (PK) follow up and limited safety evaluation.
# For each of compound 20, 21, 22 or 41, four beagle dogs (2 males, 2 females) were dosed with vehicle (1 ml/kg of an aqueous solution of 20% cyclodextrin) and 12 beagle dogs (2 males and 2 females per dosage group) were dosed with test compounds as follows:
# In the case of compounds 39, 33 and 31, two beagle dogs (1 male, 1 female) were dosed with vehicle (1 ml/kg of an aqueous solution of 20% cyclodextrin) and 4 beagle dogs (2 males and 2 females) were dosed with test compound […] (0.31 mg/kg in 0.31 mg/ml of an aqueous 20% cyclodextrin solution) on an empty stomach.
# Eight hours after dosing the animals got access to their regular meal for 30 minutes. Blood was taken for PK follow up (0.5, 1, 2, 4, 8, 25 and 49 hours) and serum samples for biochemistry were taken before and at 8 and 25 h after dosing. The CSF samples were used for measurement of Abeta 1-37, Abeta 1-38, Abeta 1-40 and Abeta 1-42.
# T1 sequence (P56817 46-501): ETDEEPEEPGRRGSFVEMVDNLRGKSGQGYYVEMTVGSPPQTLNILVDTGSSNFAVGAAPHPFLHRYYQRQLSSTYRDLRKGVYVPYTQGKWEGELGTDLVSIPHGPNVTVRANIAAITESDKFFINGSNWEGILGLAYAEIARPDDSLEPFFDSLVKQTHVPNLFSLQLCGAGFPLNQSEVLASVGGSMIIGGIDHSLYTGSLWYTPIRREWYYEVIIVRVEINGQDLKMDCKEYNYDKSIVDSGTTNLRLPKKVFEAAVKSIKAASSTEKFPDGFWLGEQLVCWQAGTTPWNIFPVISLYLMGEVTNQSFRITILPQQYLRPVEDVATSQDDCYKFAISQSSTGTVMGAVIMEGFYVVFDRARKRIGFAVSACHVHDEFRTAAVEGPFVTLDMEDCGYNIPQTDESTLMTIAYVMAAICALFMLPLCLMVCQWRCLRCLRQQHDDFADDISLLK
melting point,IC50 [1],IC50 [2],IC50 [3],SMILES,inhibition in vivo at 0.31 mg/kg [4]
214.97 °C,77.6 nM,513 nM,28.8 nM,COc1cnc(C(=O)Nc2ccc(F)c([C@]3(C)CC[C@](C)(S(C)(=O)=O)C(N)=N3)c2)cn1 [Compound 9],–
122.96 °C,2.29 nM,13.8 nM,1.48 nM,COc1cnc(C(=O)Nc2ccc(F)c([C@]3(CF)CC[C@@](C)(S(C)(=O)=O)C(N)=N3)c2)cn1 [Compound 2],56%
